pIC50: −log10 of the molar value.

Sequence of human DGAT2 (hDGAT2) (Q96PD7 whole entry): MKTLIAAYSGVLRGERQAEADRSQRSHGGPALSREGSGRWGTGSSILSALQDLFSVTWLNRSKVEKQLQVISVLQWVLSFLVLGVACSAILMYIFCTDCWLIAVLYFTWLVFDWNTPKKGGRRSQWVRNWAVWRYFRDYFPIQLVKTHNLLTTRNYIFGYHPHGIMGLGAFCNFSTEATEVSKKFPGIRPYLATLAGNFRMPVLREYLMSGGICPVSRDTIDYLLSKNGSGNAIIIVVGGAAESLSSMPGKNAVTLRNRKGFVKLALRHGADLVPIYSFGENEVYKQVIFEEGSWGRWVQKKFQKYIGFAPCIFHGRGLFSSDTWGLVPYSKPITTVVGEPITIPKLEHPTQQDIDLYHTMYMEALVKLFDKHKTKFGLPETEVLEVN

The first assay addresses human DGAT2 (hDGAT2) (Homo sapiens (Human), UniProt Q96PD7). The experiment in a line: DGAT2 Enzymatic Activity Assay. It counts as biochemical. The following applies: hDGAT2 Sf-9 membrane prep; 13C18-triolein product by LC/MS/MS; 25 μM diolein, 5 μM 13C oleoyl-CoA. Here is the method:
Sf-9 insect cells were maintained in Grace's insect cell culture medium with 10% heated-inactivated fetal bovine serum, 1% Pluronic F-68 and 0.14 μg/ml Kanamycine sulfate at 27° C. in a shaker incubator. After infection with untagged baculovirus expressing human DGAT2 (hDGAT2) at multiplicity of infection (MOI) 3 for 48 hours, cells were harvested. Cell pellets were suspended in buffer containing 10 mM Tris-HCl pH 7.5, 1 mM EDTA, 250 mM sucrose and Complete Protease Inhibitor Cocktail (Sigma Aldrich), and sonicated on ice. Cell debris were removed by centrifugation at 2000×g for 15 minutes. Membrane fractions were isolated by ultracentrifugation (100,000×g), resuspended in the same buffer, and frozen (−80° C.) for later use. The protein concentration was determined with the Pierce™ BCA Protein Assay Kit (Thermo Fisher Scientific).
LC/MS/MS analyses were performed using Thermal Fisher's LX4-TSQ Vantage system. This system consists of an Agilent binary high-performance liquid chromatography (HPLC) pump and a TSQ Vantage triple quadrupole MS/MS instrument. For each sample, 2 μL samples from the top organic layer of in-plate liquid-liquid extraction were injected onto a Thermo Betabasic C4 column (2.1 mm×20 mm, 5 μm particle size). The samples were then eluted using the following conditions; mobile phase: Isopropanol: acetonitrile/10 mM ammonium formate=50/35/15 (v/v/v), flow rate: 0.8 mL/min, temperature: 25° C. Data was acquired in positive mode using a heated electrospray ionization (HESI) interface. […] The peak area was integrated by Xcalibur Quan software. The ratio between the ^13C18triolein generated in the reaction and spiked in internal standard ^13C21-triolein was used to generate percentage inhibition and IC50 values. Compound percentage inhibition was calculated by the following formula: Inhibition %=1−[(compound response−low control)/(high control−low control)]×100%.
DGAT2 activity was determined by measuring the amount of enzymatic product ^13C18-triolein (^13C-1,2,3-Tri(cis-9-octadecenoyl)glycerol) using the membrane prep mentioned above. The assay was carried out in ABgene 384-well assay plates in a final volume of 25 μL at rt.
In the case of `C[C@]1(NC(=O)[C@@H]2Cc3c(c(-c4cccc(OC(F)F)c4)nn3C3CCOCC3)C(F)(F)C2)CCS(=O)(=O)C1` (single isomer, unassigned) [Example 117a], the pIC50 (usually the negative decadic logarithm of the IC50, by convention in mol/L) was < 5.00.

The compound `C[C@]1(NC(=O)[C@H]2Cc3c(c(-c4cccc(OC(F)F)c4)nn3C3CCOCC3)C(F)(F)C2)CCS(=O)(=O)C1` (single isomer, unassigned) [Example 117b] gave a pIC50 of 6.75.

Turning to `C[C@]1(NC(=O)[C@@H]2CCc3c(-c4cccc(OC(F)F)c4)nn(-c4ccc(F)cn4)c3C2)CCS(=O)(=O)C1` [Example 3, (R)-3-(3-(difluoromethoxy)phenyl)-1-(5-fluoropyridin-2-yl)-N-((S)-3-methyl-1,1-dioxidotetrahydrothiophen-3-yl)-4,5,6,7-tetrahydro-1H-indazole-6-carboxamide], the pIC50 is 8.31.

With `CC1(NC(=O)[C@@H]2CCc3c(-c4cccc(OC(F)F)c4)nn(-c4ccc(F)cn4)c3C2)CS(=O)(=O)C1` [Example 4, (R)-3-(3-(difluoromethoxy)phenyl)-1-(5-fluoropyridin-2-yl)-N-(3-methyl-1,1-dioxidothietan-3-yl)-4,5,6,7-tetrahydro-1H-indazole-6-carboxamide], the pIC50 is 8.29.

With `C[C@]1(NC(=O)C2CCc3c(-c4cncc(OC(F)F)c4)nn(-c4nnc(C5CC5)s4)c3C2)CCS(=O)(=O)C1` (stereo partly drawn) [Example 5, 1-(5-cyclopropyl-1,3,4-thiadiazol-2-yl)-3-(5-(difluoromethoxy)pyridin-3-yl)-N-((S)-3-methyl-1,1-dioxidotetrahydrothiophen-3-yl)-4,5,6,7-tetrahydro-1H-indazole-6-carboxamide], the pIC50 is 6.27.

The compound `CC1(NC(=O)[C@@H]2CCc3c(-c4cccc(OC(F)F)c4)nn(-c4ccc(F)cn4)c3C2)CC(F)(F)C1` [Example 7, (R)-N-(3,3-difluoro-1-methylcyclobutyl)-3-(3-(difluoromethoxy)phenyl)-1-(5-fluoropyridin-2-yl)-4,5,6,7-tetrahydro-1H-indazole-6-carboxamide] gave a negative-log IC50 (pIC50) of 7.92.

As to `CC1(NC(=O)[C@@H]2CCc3c(-c4cccc(OC(F)F)c4)nn(-c4ncc(F)cc4F)c3C2)CS(=O)(=O)C1` [Example 9, (R)-3-(3-(difluoromethoxy)phenyl)-1-(3,5-difluoropyridin-2-yl)-N-(3-methyl-1,1-dioxidothietan-3-yl)-4,5,6,7-tetrahydro-1H-indazole-6-carboxamide], the negative-log IC50 (pIC50) is 7.99.

Regarding `C[C@]1(NC(=O)C2CCc3c(-c4cccc(OC(F)F)c4)nn(-c4ncc(Cl)cn4)c3C2)CCS(=O)(=O)C1` (stereo partly drawn) [Example 10, 1-(5-chloropyrimidin-2-yl)-3-(3-(difluoromethoxy)phenyl)-N-((S)-3-methyl-1,1-dioxidotetrahydrothiophen-3-yl)-4,5,6,7-tetrahydro-1H-indazole-6-carboxamide], the negative logarithm of the IC50 (pIC50) was 7.43.

In the case of `CC1(NC(=O)[C@@H]2CCc3c(-c4cncc(OC(F)F)c4)nn(-c4ccc(F)cn4)c3C2)CS(=O)(=O)C1` [Example 12, (R)-3-(5-(difluoromethoxy)pyridin-3-yl)-1-(5-fluoropyridin-2-yl)-N-(3-methyl-1,1-dioxidothietan-3-yl)-4,5,6,7-tetrahydro-1H-indazole-6-carboxamide], the pIC50 is 7.18.

Turning to `C[C@]1(NC(=O)[C@@H]2CCc3c(-c4cccc(C5CC(F)(F)C5)c4)nn(-c4ccc(F)cc4)c3C2)CCS(=O)(=O)C1` [Example 13, (R)-3-(3-(3,3-difluorocyclobutyl)phenyl)-1-(4-fluorophenyl)-N-((S)-3-methyl-1,1-dioxidotetrahydrothiophen-3-yl)-4,5,6,7-tetrahydro-1H-indazole-6-carboxamide], the pIC50 is 7.70.

For `C[C@]1(NC(=O)[C@@H]2CCc3c(-c4cncc(OC(F)F)c4)nn(-c4ccc(F)cn4)c3C2)CCS(=O)(=O)C1` [Example 14, (R)-3-(5-(difluoromethoxy)pyridin-3-yl)-1-(5-fluoropyridin-2-yl)-N-((S)-3-methyl-1,1-dioxidotetrahydrothiophen-3-yl)-4,5,6,7-tetrahydro-1H-indazole-6-carboxamide], the pIC50 is 7.86.

For `O=C(N[C@@H]1CCC[C@H]1N1CCOCC1)C1CCc2c(-c3cccc(OC(F)F)c3)nn(-c3ccc(F)cn3)c2C1` (stereo partly drawn) [Example 16, 3-(3-(difluoromethoxy)phenyl)-1-(5-fluoropyridin-2-yl)-N-((1R,2R)-2-morpholinocyclopentyl)-4,5,6,7-tetrahydro-1H-indazole-6-carboxamide], the negative logarithm of the IC50 (pIC50) was 7.17.

`C[C@]1(NC(=O)[C@@H]2CCc3c(-c4cccc(C5(F)CC5)c4)nn(-c4ccc(F)cc4)c3C2)CCS(=O)(=O)C1` [Example 17, (R)-3-(3-(1-fluorocyclopropyl)phenyl)-1-(4-fluorophenyl)-N-((S)-3-methyl-1,1-dioxidotetrahydrothiophen-3-yl)-4,5,6,7-tetrahydro-1H-indazole-6-carboxamide] had a pIC50 of 7.15.

With `CC(C)(N)c1cccc(-c2nn(-c3ccc(F)cc3)c3c2CC[C@@H](C(=O)N[C@@]2(C)CCS(=O)(=O)C2)C3)c1` [Example 18, (R)-3-(3-(2-aminopropan-2-yl)phenyl)-1-(4-fluorophenyl)-N-((S)-3-methyl-1,1-dioxidotetrahydrothiophen-3-yl)-4,5,6,7-tetrahydro-1H-indazole-6-carboxamide], the negative logarithm of the IC50 (pIC50) was < 5.00.

As for `C[C@]1(NC(=O)[C@@H]2CCc3c(-c4cncc(OC(F)F)n4)nn(-c4ccc(F)cn4)c3C2)CCS(=O)(=O)C1` [Example 19, (R)-3-(6-(difluoromethoxy)pyrazin-2-yl)-1-(5-fluoropyridin-2-yl)-N-((S)-3-methyl-1,1-dioxidotetrahydrothiophen-3-yl)-4,5,6,7-tetrahydro-1H-indazole-6-carboxamide], the negative-log IC50 (pIC50) is < 5.00.

`Cn1nccc1-c1nn(-c2ccc(F)cn2)c2c1CC[C@@H](C(=O)N[C@@]1(C)CCS(=O)(=O)C1)C2` [Example 20, (R)-1-(5-fluoropyridin-2-yl)-N-((S)-3-methyl-1,1-dioxidotetrahydrothiophen-3-yl)-3-(1-methyl-1H-pyrazol-5-yl)-4,5,6,7-tetrahydro-1H-indazole-6-carboxamide] gave a pIC50 of 5.07.

In turn, `CC(C)n1nc(-c2cc(OC(F)F)ncc2F)c2c1C[C@H](C(=O)NC1(C)CCS(=O)(=O)CC1)CC2` [Example 21, (R)-3-(2-(difluoromethoxy)-5-fluoropyridin-4-yl)-1-isopropyl-N-(4-methyl-1,1-dioxidotetrahydro-2H-thiopyran-4-yl)-4,5,6,7-tetrahydro-1H-indazole-6-carboxamide] had a negative logarithm of the IC50 (pIC50) of 7.36.

With `CCOc1cc(-c2nn(C(C)C)c3c2CC[C@@H](C(=O)NC2(C)CCS(=O)(=O)CC2)C3)c(F)cn1` [Example 22, (R)-3-(2-ethoxy-5-fluoropyridin-4-yl)-1-isopropyl-N-(4-methyl-1,1-dioxidotetrahydro-2H-thiopyran-4-yl)-4,5,6,7-tetrahydro-1H-indazole-6-carboxamide], the negative logarithm of the IC50 (pIC50) was 6.84.

`CC1(NC(=O)[C@@H]2CCc3c(-c4cccc(OC(F)F)c4)nn(C4CCOCC4)c3C2)CS(=O)(=O)C1` [Example 23, (R)-3-(3-(difluoromethoxy)phenyl)-N-(3-methyl-1,1-dioxidothietan-3-yl)-1-(tetrahydro-2H-pyran-4-yl)-4,5,6,7-tetrahydro-1H-indazole-6-carboxamide] showed a pIC50 of 6.77.

`C[C@]1(NC(=O)[C@@H]2CCc3c(-c4cccc(OC(F)F)c4)nn(C4CCS(=O)(=O)CC4)c3C2)CCS(=O)(=O)C1` [Example 24, (R)-3-(3-(difluoromethoxy)phenyl)-1-(1,1-dioxidotetrahydro-2H-thiopyran-4-yl)-N-((S)-3-methyl-1,1-dioxidotetrahydrothiophen-3-yl)-4,5,6,7-tetrahydro-1H-indazole-6-carboxamide] showed a pIC50 of 6.84.

As for `CC(C)n1nc(-c2cccc(OC(F)F)c2)c2c1C[C@H](C(=O)N[C@@]1(C)CCS(=O)(=O)C1)CC2` [Example 25, (R)-3-(3-(difluoromethoxy)phenyl)-1-isopropyl-N-((S)-3-methyl-1,1-dioxidotetrahydrothiophen-3-yl)-4,5,6,7-tetrahydro-1H-indazole-6-carboxamide], the negative-log IC50 (pIC50) was 7.22.

Still in this assay, the particulars now being: unit given as nm; hDGAT2 Sf-9 membrane prep; 13C18-triolein product by LC/MS/MS.
In the case of `CC1(NC(=O)C2CCc3c(-c4ccccc4Cl)nn(-c4ccc(F)cc4)c3C2)CCS(=O)(=O)C1` (stereo not shown) [Example 1, 3-(2-chlorophenyl)-1-(4-fluorophenyl)-N-(3-methyl-1,1-dioxidotetrahydrothiophen-3-yl)-4,5,6,7-tetrahydro-1H-indazole-6-carboxamide], the negative logarithm of the IC50 (pIC50) is 7.42.

(Values after patent US20240140938A1, “PREPARATION OF TETRAHYDROINDAZOLE DERIVATIVES AS NOVEL DIACYLGLYCERIDE O-ACYLTRANSFERASE 2 INHIBITORS” (MERCK SHARP & DOHME LLC, priority 2020, published 2024).)
